# Measured values from ChEMBL document CHEMBL1201862, “PubChem BioAssay data set” (2004).
#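 Interpolation was linear, between the two tested concentrations surrounding the appropriate level; five concentrations were tested over 48 hours in 96-well plates. GI50: concentration for 50% inhibition of growth.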 Calls of active or inactive are those of the source. Cut-off read from the data, not from the text of the source: active = GI50 up to about 1.1 µM and inactive = higher.
# Key:
# Assay in all cases: NCI tumour cell line growth inhibition, 48 h
# UACC-257 = tested on: UACC-257
# UACC-62 = tested on: UACC-62
# U-251 = tested on: U-251
# SF-295 = tested on: SF-295
# MDA-MB-231 = tested on: MDA-MB-231
# NCI/ADR-RES = tested on: NCI/ADR-RES
# SK-MEL-28 = tested on: SK-MEL-28
# SR = tested on: SR
# K562 = tested on: K562
# SK-MEL-2 = tested on: SK-MEL-2
# CCRF-CEM = tested on: CCRF-CEM
# MCF7 = tested on: MCF7
# SK-MEL-5 = tested on: SK-MEL-5
# KM12 = tested on: KM12
# NCI-H23 = tested on: NCI-H23
# IGROV-1 = tested on: IGROV-1
# T47D = tested on: T47D
# HCT-15 = tested on: HCT-15
# UO-31 = tested on: UO-31
# NCI-H460 = tested on: NCI-H460
Structure (SMILES),GI50 (UACC-257),GI50 (UACC-62),GI50 (U-251),GI50 (SF-295),GI50 (MDA-MB-231),GI50 (NCI/ADR-RES),GI50 (SK-MEL-28),GI50 (SR),GI50 (K562),GI50 (SK-MEL-2),GI50 (CCRF-CEM),GI50 (MCF7),GI50 (SK-MEL-5),GI50 (KM12),GI50 (NCI-H23),GI50 (IGROV-1),GI50 (T47D),GI50 (HCT-15),GI50 (UO-31),GI50 (NCI-H460)
CC(=O)Nc1cc2ccc(=O)oc2cc1Cl,> 100 µM (inactive),> 100 µM (inactive),> 100 µM (inactive),> 100 µM (inactive),> 100 µM (inactive),> 100 µM (inactive),> 100 µM (inactive),> 100 µM (inactive),> 100 µM (inactive),> 100 µM (inactive),> 100 µM (inactive),> 100 µM (inactive),> 100 µM (inactive),> 100 µM (inactive),> 100 µM (inactive),> 100 µM (inactive),> 100 µM (inactive),> 100 µM,> 100 µM (inactive),> 100 µM (inactive)
COC1=CC2(CC(OC)=C1OC)OC21COc2ccccc2C1=O (stereo not given),44.4 µM (inactive),60.1 µM (inactive),73.8 µM (inactive),61.2 µM (inactive),> 100 µM (inactive),85.7 µM (inactive),> 100 µM (inactive),24.9 µM (inactive),56.2 µM (inactive),40.2 µM (inactive),32.3 µM (inactive),55.7 µM (inactive),43 µM (inactive),> 100 µM (inactive),58.5 µM (inactive),> 100 µM (inactive),34.3 µM (inactive),65.8 µM,5.16 µM (inactive),42.9 µM (inactive)
CCOC(=O)c1nnc2c(C(=O)OCC)c3ccccc3n2c1N,2.09 µM (inactive),2.43 µM (inactive),5.41 µM (inactive),26.9 µM (inactive),19.8 µM (inactive),3.61 µM (inactive),5.85 µM (inactive),6.92 µM (inactive),11.2 µM (inactive),5.15 µM (inactive),2.22 µM (inactive),13.1 µM (inactive),5.52 µM (inactive),4.43 µM (inactive),5.94 µM (inactive),1.12 µM (active),29.9 µM (inactive),7.66 µM,7.87 µM (inactive),8.13 µM (inactive)
COC(=O)C(N)CCCC(N)C(=O)NC(C)C(=O)NC(CCC(=O)NCCNCCNc1c2ccccc2nc2cccc([N+](=O)[O-])c12)C(N)=O (stereo not given),19.5 µM (inactive),8.09 µM (inactive),5.48 µM (inactive),27.8 µM (inactive),16.9 µM (inactive),80.5 µM (inactive),16.6 µM (inactive),19.7 µM (inactive),3.13 µM (inactive),8.51 µM (inactive),7.59 µM (inactive),3.89 µM (inactive),6.92 µM (inactive),10.5 µM (inactive),3.03 µM (inactive),4.6 µM (inactive),5.06 µM (inactive),14.2 µM,21.9 µM (inactive),3.17 µM (inactive)
Cn1c(-c2ccco2)ccc1-c1ccc(C=O)o1,> 100 µM (inactive),60.3 µM (inactive),39.1 µM (inactive),> 100 µM (inactive),79.1 µM (inactive),33 µM (inactive),48.6 µM (inactive),31 µM (inactive),37.5 µM (inactive),> 100 µM (inactive),27.5 µM (inactive),30.5 µM (inactive),64.1 µM (inactive),> 100 µM (inactive),94.6 µM (inactive),38.2 µM (inactive),38.1 µM (inactive),72.4 µM,46.7 µM (inactive),> 100 µM (inactive)
CC(=NNC(=S)Nc1cccc(C)c1)c1cccc(C(C)=NNC(=S)Nc2cccc(C)c2)n1,0.0198 µM (active),15.2 µM (inactive),21.5 µM (inactive),6.19 µM (inactive),19 µM (inactive),14.2 µM (inactive),> 100 µM (inactive),5.25 µM (inactive),17.1 µM (inactive),13.3 µM (inactive),4.22 µM (inactive),22.9 µM (inactive),8.89 µM (inactive),0.851 µM (active),27.4 µM (inactive),10.8 µM (inactive),30.8 µM (inactive),15.2 µM,16 µM (inactive),12.8 µM (inactive)
